According to EP0267319A1, “Anti-spasmodic agents having a ring in the main chain” (United Pharmaceuticals, Inc., priority 1986, dated 1988):
Structures can show the parent of a compound that is named as a salt.

Tested on: rabbit urinary bladder strip
Experiment: relaxant effect on bethanechol-contracted rabbit urinary bladder strips (organ bath)
Type: cell-based
Conditions: for Decrease in force of contraction of rabbit bladder strip / Increase in length of rabbit bladder strip: strips pre-contracted with bethanechol 150 µM; for Increase in length of rabbit bladder strip: cumulative dosing, read 5 minutes after addition; for % background relaxation: term not explained
Experimental: The pharmological actions of one anti-spasmodic compound was studied in a rabbit urinary bladder strip preparation. In general, longitudinal strips were prepared from the base of freshly isolated rabbit bladders and were then suspended under near-physiological conditions in tissue baths. The strips were attached to force transducers and both contractile and relaxant activity was measured. To measure the relaxant effects on the anti-spasmodic compounds on previously-contracted bladder strips, the strips were initially exposed to the muscarinic receptor agonist bethanechol and allowed to reach a steady level of contractile activity for 20 minutes. At this point cumulative dose-responses to the compound was recorded. The rabbit abdomens were opened through a vertical midline incision. The bladder and urethra were dissected free of all surrounding tissues, removed and placed in aerated (95% O₂:5% CO₂) Kreb's-bicarbonate buffer (pH:7.4) of the following composition ([…]):KCl 4.6, CaCl₂·2H₂O 2.5, KH₂PO₄ 1.2, MgSO₄·7H₂O 1.2, NaCl 118.2, NaHCO₃ 24.8, and glucose 10.0. Longitudinal muscle strips were prepared from the bladder base (approximately 6 mm x 4 mm) and suspended in an organ bath containing Kreb's buffer (37°C) which was continuously aerated with O₂:CO₂ (95%:5%). Tissues were allowed to equilibrate to a tension of 2 gm for sixty minutes during which time buffer was replaced at 20 minute intervals. The contractile and relaxant responses of the muscle strips were measured isometrically with a Statham UC3 force-displacement transducer and recorded on an Electronics for Medicine DR8 oscillographic recorder. Bethanechol was employed as the representative cholinergic agonist and, following equilibration, was added to the baths for a final concentration of 150 µM. The tissues were allowed 20 minutes to achieve a maintained level of contraction in response to bethanechol and, at this point, cumulative dose-response measurements for one anti-spasmodic compound were started at concentrations ranging from 10⁻⁸ M to 10⁻⁴M. Solutions were added in volumes up to 100 µl and were prepared fresh each day by dissolving them in distilled:deionzed water. Responses were measured 5 minutes following any particular cumulative addition and were expressed as a percentage of maximal relaxation (e.g. maximal relaxation is the baseline or pre-bethanechol level of muscle tone).
Dose responses, measured from the standard bethanechol-contracted rabbit bladder strips, at various concentrations of 4-t-butyl-benzoyl-thio-S-(2-diethylaminoethyl)-ester·HCl [drawing 12] are presented in Table I: […]

CCN(CC)CCSC(=O)c1ccc(C(C)(C)C)cc1 [4-t-butyl-benzoyl-thio-S-(2-diethylaminoethyl)-ester·HCl]
Decrease in force of contraction of rabbit bladder strip (10^-4 moles/liter): 0.67 gm | Increase in length of rabbit bladder strip (10^-4 moles/liter): 3.2 cm | % background relaxation (10^-4 moles/liter): 31.8% | Decrease in force of contraction of rabbit bladder strip (10^-5 moles/liter): 0.27 gm | Increase in length of rabbit bladder strip (10^-5 moles/liter): 1.3 cm | % background relaxation (10^-5 moles/liter): 9.5% | Decrease in force of contraction of rabbit bladder strip (10^-6 moles/liter): 0.08 gm | Increase in length of rabbit bladder strip (10^-6 moles/liter): 0.4 cm | % background relaxation (10^-6 moles/liter): 0.0% | Decrease in force of contraction of rabbit bladder strip (10^-7 moles/liter): 0.04 gm | Increase in length of rabbit bladder strip (10^-7 moles/liter): 0.2 cm | % background relaxation (10^-7 moles/liter): 0.0% | Decrease in force of contraction of rabbit bladder strip (10^-8 moles/liter): 0.02 gm | Increase in length of rabbit bladder strip (10^-8 moles/liter): 0.1 cm | % background relaxation (10^-8 moles/liter): 0.0% | inhibition at 100 µM (Oryctolagus cuniculus, 5 min, 10^-4 moles/liter, maximal relaxation = pre-bethanechol level of muscle tone, read-out: % of maximum relaxation): 40.5% | inhibition at 10 µM (Oryctolagus cuniculus, 5 min, 10^-5 moles/liter, maximal relaxation = pre-bethanechol level of muscle tone, read-out: % of maximum relaxation): 16.5% | inhibition at 1 µM (Oryctolagus cuniculus, 5 min, 10^-6 moles/liter, maximal relaxation = pre-bethanechol level of muscle tone, read-out: % of maximum relaxation): 5.2% | inhibition at 0.1 µM (Oryctolagus cuniculus, 5 min, 10^-7 moles/liter, maximal relaxation = pre-bethanechol level of muscle tone, read-out: % of maximum relaxation): 2.6% | inhibition at 0.01 µM (Oryctolagus cuniculus, 5 min, 10^-8 moles/liter, maximal relaxation = pre-bethanechol level of muscle tone, read-out: % of maximum relaxation): 1.3%
